Values of other authors in the CATMoS acute toxicity set (Mansouri et al. 2021).
“And” between values parts separate entries of the source, which are not always exact repeats. Equal values may be shown once.

Assay: rat acute oral toxicity
Conditions: in vivo
Source text: […]The data set underlying the modeling effort for this project was initially compiled by NICEATM and U.S. EPA’s CCTE. Briefly, LD50 data were collected from rat acute oral systemic toxicity tests, including limit tests, ranges/confidence intervals, and discrete LD50 values. The full data set included 21,200 LD50 entries for 15,688 substances. […] Data were reviewed to ensure that LD50 values with obvious errors in the extracted data such as unit conversion errors (e.g., comma and decimal separator misplacements) were either fixed or removed. After this review, 16,209 LD50 values remained. Many of the chemicals represented had multiple LD50 entries, requiring that a single representative value per Chemical Abstracts Service Registry Number (CASRN) identifier be defined to facilitate modeling efforts. Based on ATWG feedback and to define the representative LD50 as a protective value while accounting for the distribution across multiple LD50s, the median of the lowest quartile was computed using only discrete LD50 values (omitting limit test data and range and confidence interval data). A detailed summary of the data compilation is available online on the NICEATM webpage dedicated to the collaborative modeling project (NTP 2020).
[…][…] For categorical designations, limit test and range/confidence interval LD50 data were integrated wherever possible. As such, the number of chemicals with end point values/calls varies across the modeling end points (Table 3) based on whether chemicals had representative LD50 values and/or other data. If a chemical had both, the representative value was used to determine categorical calls rather than limit test data. Some data were useable only for certain end points and categories depending on the thresholds. For example, ranges that spanned multiple hazard categories were considered only for the binary (very toxic/nontoxic) end points and omitted from rendering a determination for hazard category assignment.
[…]The final data set comprising 11,992 chemicals was split into training and evaluation sets […], respectively. This process was performed semirandomly by ordering chemicals based on the five end points (categorical and continuous LD50 values) and partitioning every fourth record into the evaluation set accordingly. This approach was taken to ensure an equivalent distribution of the LD50 values and the different hazard categories between the training and the evaluation sets without supervised sampling of the chemicals based on structures (Figure 1A). The sources of the chemical structures were also kept equivalent between the two sets, with chemical structures obtained from DSSTox, being the highest quality, representing over 75% of each set (Figure 1B).

CCCCCCCCc1ccccc1O
LD50: 2800 mg/kg

Nc1ccc(C(=O)Nc2ccccc2N)cc1
LD50: 95 mg/kg

C#CCOP(=O)(OCCC)c1ccccc1 (configuration not stated)
LD50: 362 mg/kg

CNC(=O)Oc1c(C(C)C)ccc(C)c1N(C)C
LD50: 67 mg/kg

CNC(=O)Oc1cccc2c(O)cccc12
LD50: 297 mg/kg

CCOc1cc(OP(=S)(OC)OC)nc(CC)n1
LD50: 1800 mg/kg

C=COC=O
LD50: 2820 mg/kg

CCNc1nc(NC(C)CC)nc(OC)n1 (configuration not stated)
LD50: 1000 mg/kg

CN(C)N=Nc1nc[nH]c1C(N)=O
LD50: 2150 mg/kg

CN(CCO)c1nc(Nc2ccccc2)nc(Nc2ccc(/C=C/c3ccc(Nc4nc(Nc5ccccc5)nc(N(C)CCO)n4)cc3S(=O)(=O)O)c(S(=O)(=O)O)c2)n1
LD50: 6890 mg/kg

CC1=C(C(=O)OCCN(C)Cc2ccc(F)cc2)C(c2cccc3c2OCO3)C(C(=O)OC(C)C)=C(C)N1 (configuration not stated)
LD50: 64 mg/kg

O=CNc1ccc(Br)cc1
LD50: 1120 mg/kg

Cc1ccc([N+](=O)[O-])cc1S(=O)(=O)Cl
LD50: 7470 mg/kg

O=C1C=CC(=O)N1c1cccc(N2C(=O)C=CC2=O)c1
LD50: 1370 mg/kg

Nc1cccc(C(F)(F)F)c1
LD50: 480 mg/kg

Cc1cc(Cl)ccc1Cn1nc(C(=O)O)c2ccccc21
LD50: 4000 mg/kg

CC(=O)c1cccc2ccccc12
LD50: 1560 mg/kg

CCCC(=O)CCC
LD50: 3730 mg/kg

COc1ccc(CC(=O)O)cc1
LD50: 1550 mg/kg

CCOc1ccc(Cl)cc1C(CN(C)C)C(C)CC (configuration not stated)
LD50: 632 mg/kg

COCCOC(=O)C1=C(C)NC(C)=C(C(=O)OC/C=C/c2ccccc2)C1c1cccc([N+](=O)[O-])c1 (configuration not stated)
LD50: 4410 mg/kg

CCCCOCCOCCCO
LD50: 5160 mg/kg

CCCCOCCOCCSC#N
LD50: 90 mg/kg

NCc1cc(O)no1
LD50: 45 mg/kg

NNS(=O)(=O)c1ccc(Oc2ccc(S(=O)(=O)NN)cc2)cc1
LD50: 2300 mg/kg

C=CC(OC(C)=O)OC(C)=O
LD50: 35 mg/kg

CC(C)OC(=O)C(C(=O)OC(C)C)=C1SC=CS1
LD50: 2060 mg/kg

Clc1ccc2ccccc2c1
LD50: 2080 mg/kg

O=S(=O)(c1ccccc1)c1ccc(Cl)cc1
LD50: 1400 mg/kg

Nc1c(I)cc(I)c(C(=O)N(CCC(=O)O)c2ccccc2)c1I
LD50: 2800 mg/kg

CCOC(=O)C(=O)NP(=O)(OC)SC (configuration not stated)
LD50: 501 mg/kg

CC(C)COC(=O)c1ccccc1
LD50: 5600 mg/kg

CC(C)NCC(O)COC(C)c1ccccc1 (configuration not stated)
LD50: 540 mg/kg

CC(CO)CCO (configuration not stated)
LD50: 5460 mg/kg

FC(F)=C(F)c1ccccc1
LD50: 2500 mg/kg

CCOP(=O)(NC(C)C)SCC(=O)NCOC (configuration not stated)
LD50: 100 mg/kg

CC(C)(N)Cc1ccc(Cl)cc1
LD50: 150 mg/kg and 250 mg/kg

CC[N+](C)(CC)CCOC(=O)C(O)(c1ccccc1)C1CCCCC1 (configuration not stated)
LD50: 995 mg/kg

CCNc1nc(Cl)nc(N(CC)CC)n1
LD50: 594 mg/kg

Oc1cccc2cc3cccc(O)c3c(O)c12
LD50: 3220 mg/kg

Cc1cc(Cl)ccc1OCC(=O)O
LD50: 1200 mg/kg and 800 mg/kg

Cc1ccc(C)nc1
LD50: 800 mg/kg

COC1C(O)CC(=O)OC(C)CC=CC=CC(OC2CCC(N(C)C)C(C)O2)C(C)CC(CC=O)C1OC1OC(C)C(OC2CC(C)(O)C(O)C(C)O2)C(N(C)C)C1O (configuration not stated)
LD50: 4650 mg/kg

Oc1c(Cl)c(Cl)cc(Cl)c1Cc1c(Cl)cc(Cl)c(Cl)c1O
LD50: 100 mg/kg

Cc1cc(O)ccc1S(C)=O (configuration not stated)
LD50: 3500 mg/kg

CC(C(C)(C)C)C(C)(C)SSSC(C)(C)C(C)C(C)(C)C (configuration not stated)
LD50: 19600 mg/kg

Cc1c(Cc2cc(C(C)(C)C)c(O)c(C(C)(C)C)c2)c(C)c(Cc2cc(C(C)(C)C)c(O)c(C(C)(C)C)c2)c(C)c1Cc1cc(C(C)(C)C)c(O)c(C(C)(C)C)c1
LD50: 1500 mg/kg

COP(=S)(OC)SCn1nc(C)ccc1=O
LD50: 8.75 mg/kg

CCCCCCCCCOC(=O)C1=CNC=C(C(=O)NC2CCCC2)C1c1ccccc1[N+](=O)[O-] (configuration not stated)
LD50: 10 mg/kg

CCOC(C1=NCCCN1)c1ccc(Cl)cc1 (configuration not stated)
LD50: 875 mg/kg

CC1(C)C(C=C(Br)Br)C1C(=O)OC(C#N)c1cccc(Oc2ccccc2)c1 (configuration not stated)
LD50: 80 mg/kg

CC(=O)C=Cc1ccc2c(c1)OCO2
LD50: 4000 mg/kg

CCC(C)(C)c1ccc2c(c1)C(=O)c1ccccc1C2=O
LD50: 1600 mg/kg

CN(C)C(=O)Nc1ccc(SC(F)(F)Cl)c(Cl)c1
LD50: 336 mg/kg

O=C(O)Cc1ccccc1
LD50: 2250 mg/kg

COc1cc2ccc(=O)oc2cc1OC
LD50: 292 mg/kg

COc1c(C)ccc(C)c1N(COC(C)C)C(=O)CCl
LD50: 1730 mg/kg

COP(=O)(OC)OC
LD50: 840 mg/kg

O=[N+]([O-])c1c(Br)ccc2[nH]c(C(F)(F)F)nc12
LD50: 13.5 mg/kg

Cc1cccc(NC(=S)N(C)C)c1
LD50: 2200 mg/kg

Cc1cc(OCCO)cc(C)c1Cl
LD50: 3800 mg/kg

O=C(Cl)C(Cl)(Cl)Cl
LD50: 600 mg/kg

CN1CCC2(C)c3cc(OC(=O)NCCCCCCCCCCN4CCOCC4)ccc3N(C)C12 (configuration not stated)
LD50: 40 mg/kg

COc1ccc2c(c1)OC(C)(C)C(c1ccccc1)=C2c1ccc(OCCO)cc1
LD50: 500 mg/kg

O=COCCc1ccccc1
LD50: 3220 mg/kg

CCCCCOc1ccc(Br)cc1COCCN(CC)CC
LD50: 320 mg/kg

C=CCc1ccccc1OCC(O)CNC(C)C (configuration not stated)
LD50: 590 mg/kg

COc1ccc2c(c1)C(N1CCN(C)CC1)=Cc1ccccc1O2
LD50: 822 mg/kg

COC(=O)c1ccc(N=NN(C)C)cc1
LD50: 52 mg/kg

Clc1ccc(CO/N=C(\Cn2ccnc2)c2ccc(Cl)cc2Cl)c(Cl)c1
LD50: 2460 mg/kg

OC(CCCN1CCCCC1)(c1ccccc1)c1ccccc1
LD50: 515 mg/kg

CCCCOP(=O)(O)OCCCC
LD50: 3200 mg/kg and 3520 mg/kg

Cc1cc(=O)[nH]c(=O)[nH]1
LD50: 64500 mg/kg

O=C(CCCl)OC1=C(OC(=O)CCCl)C(=O)OC1=O
LD50: 7000 mg/kg

Cc1c(Cl)c(=O)oc2cc(OP(=O)(OCC(C)Cl)OCC(C)Cl)ccc12 (configuration not stated)
LD50: 686 mg/kg

CCOC(=O)[C@H](CCc1ccccc1)N[C@@H](C)C(=O)N1CCC[C@H]1C(=O)O
LD50: 2970 mg/kg

O=CN(c1ncnc2c1ncn2C1CC1)C1CC1
LD50: 175 mg/kg

CC(=O)c1cc2cccc(OCC(O)CNC(C)C)c2o1 (configuration not stated)
LD50: 922 mg/kg

S=C=NCCN=C=S
LD50: 112 mg/kg

O=C(OCc1ccccc1)c1sc(Cl)nc1C(F)(F)F
LD50: 5010 mg/kg

CCCCc1c(C)nc2ccccn2c1=O
LD50: 1100 mg/kg

CN(C)CCC=C(c1ccccc1)c1ccc(C(F)(F)F)cc1
LD50: 1000 mg/kg

COc1ccc(C(=O)CCC(=O)O)c2c(C)c(C)oc12
LD50: 2180 mg/kg

CN(C)N=Nc1ccc(Cl)cc1
LD50: 362 mg/kg

COC(=O)CCC[N+](C)(C)C
LD50: 478 mg/kg

CC(C)=CCC1=C(O)C(C(=O)CC(C)C)=C(O)C(CC=C(C)C)(CC=C(C)C)C1=O
LD50: 100 mg/kg

CCCC(=O)OC(=O)CCC
LD50: 8790 mg/kg

C#CC(=O)O
LD50: 100 mg/kg

OCCN1CCCN(CCCN2c3ccccc3C=Cc3ccccc32)CC1
LD50: 2410 mg/kg

COC(=O)Nc1nc2ccc(C(=O)c3ccc(F)cc3)cc2[nH]1
LD50: 2560 mg/kg

COC(=O)c1c(Cl)c(Cl)c(C(=O)SC)c(Cl)c1Cl
LD50: 3300 mg/kg

OC[C@H]1O[C@@H](n2cnc3c(S)ncnc32)[C@H](O)[C@@H]1O
LD50: 900 mg/kg

CCCCCCCCCCCCCCCC[N+](C)(C)CC(=O)[O-]
LD50: 1620 mg/kg

c1coc(-c2nc3ccccc3[nH]2)c1
LD50: 500 mg/kg

CCCCCCCCOP(OCC(CC)CCCC)Oc1ccccc1 (configuration not stated)
LD50: 7000 mg/kg

CCCCCCCCN
LD50: 315 mg/kg

O=C(O)CCC(=O)c1ccc2oc3ccccc3c2c1
LD50: 1280 mg/kg

CCS(=O)CSP(=S)(OC(C)C)OC(C)C (configuration not stated)
LD50: 25 mg/kg

Cc1c(F)c(F)c2nc(C(F)(F)F)[nH]c2c1F
LD50: 3.94 mg/kg

CC(C)=CCC(CCN1CCCC1)(C(N)=O)c1cccc2ccccc12 (configuration not stated)
LD50: 71 mg/kg

CN(C)CCN1C(=O)c2ccccc2N(C)c2ccccc21
LD50: 220 mg/kg

CCCCCCCCC(CC=CCl)CCCN (configuration not stated)
LD50: 1320 mg/kg

CCC(O)(c1ccccc1)c1cccc(C(F)(F)F)c1 (configuration not stated)
LD50: 2240 mg/kg

NC(Cc1ccc(Oc2ccc(N(CCCl)CCCl)cc2)cc1)C(=O)O (configuration not stated)
LD50: 620 mg/kg

CCCCOCCC(=O)O
LD50: 5190 mg/kg

CNC(=O)ON=C1[C@@H](Cl)[C@@H]2C[C@H](C#N)[C@H]1C2 (relative stereo)
LD50: 25 mg/kg

Cc1cc(=O)n(CSP(=S)(OC(C)C)OC(C)C)nc1Cl
LD50: 110 mg/kg

O=C1c2cccc(S(=O)(=O)O)c2C(=O)c2cccc(S(=O)(=O)O)c21
LD50: 2360 mg/kg

NCC(O)c1cccc(O)c1 (configuration not stated)
LD50: 390 mg/kg

CCOP(=S)(OCC)SC1COCCS1 (configuration not stated)
LD50: 3 mg/kg

O=C(CCCN1CCN2Cc3[nH]c4ccccc4c3CC2C1)c1ccc(F)cc1 (configuration not stated)
LD50: 700 mg/kg

c1ccsc1
LD50: 1400 mg/kg

CCCCCCCOCCOCCO
LD50: 2940 mg/kg

CC(=O)Oc1ccccc1C=CC(=O)O
LD50: 3150 mg/kg

CCSP(=O)(OC)SCC
LD50: 158 mg/kg

COCCOc1cnc(NS(=O)(=O)c2ccccc2)nc1
LD50: 3100 mg/kg

O=c1ccc2cc(CCCCN3CCN(c4ccccc4)CC3)ccc2[nH]1
LD50: 500 mg/kg

CC(C)(C)NCC(O)COc1cccc2c1C[C@H](O)[C@H](O)C2 (some centres not stated)
LD50: 5300 mg/kg

Cc1cc(N=Nc2ccc(S(=O)(=O)O)cc2)c(N)c(N=Nc2ccc(-c3ccc(N=Nc4cc(C)c(O)c(C(=O)O)c4)cc3)cc2)c1N
LD50: 9960 mg/kg

CCOP(=S)(OCC)SCc1ccc([N+](=O)[O-])cc1
LD50: 100 mg/kg

CC(C(O)c1ccccc1)N(C)CCC#N (configuration not stated)
LD50: 940 mg/kg

CCc1cc(=O)c2ccccc2o1
LD50: 1400 mg/kg
